Entries after “also recorded” stand apart in the source; their conditions may differ.
Tests used:
Format in all cases: cell-based
[1] = system: HCT15 (human colon adenocarcinoma) cell line; assay: MTT assay for in vitro cytotoxicity, HCT15; details: for antiproliferative potential for HCT15 cells, in words (relative to cisplatin / within the series): comparison of IC50 values; for IC50: 24 h incubation with compound, three independent experiments, read-out: IC50 values against HCT15 cancer cell line
Method: (§1) The anticancer activity of complexes 1-5 was measured using a similar testing protocol reported earlier (M. Altaf et al., New J. Chem. 2015, 39, 377-385, incorporated herein by reference in its entirety) against a panel of representative human tumor cell lines, which included MCF7 (human breast cancer), HCT15 (human colon adenocarcinoma) and A549 (human lung carcinoma) cell lines. The cells were seeded at 3×10^3 cells/well in 100 μL DMEM containing 10% Fetal Bovine Serum (FBS) in 96-well tissue culture plate and incubated for 72 h at 37° C., 5% CO2 in air and 90% relative humidity in CO2 incubator. After incubation, 100 μL of 50, 25 and 12.5 μM solutions of cisplatin and complexes 1-5 prepared in Dulbecco's Modified Eagle's Medium (DMEM), were added to the cells and the cultures were incubated for 24 h. The medium of wells was discarded and 100 μL DMEM containing MTT (0.5 mg/mL) was added to the wells and incubated in CO2 incubator at 37° C. in dark for 4 h. After incubation, a purple colored formazan produced in the cells appeared as dark crystals in the bottom of the wells. The culture medium was discarded from each well carefully to prevent disruption of monolayer and 100 μL of dimethyl sulfoxide (DMSO) was added in each well. The solution in the wells was thoroughly mixed to dissolve the formazan crystals which produce a purple solution. The absorbance of the 96 well-plates was taken at 570 nm with Lab systems Multiskan EX ELISA reader against a reagent blank. The experimental results were presented as micro-mole concentration of 50% cell growth inhibition (IC50) of each compound. The MTT assay was performed in three independent experiments.
(§2) The synthesized gold(I)-phosphine complexes (1 and 2), gold(I)-dithiocarbamates (3-5) and cisplatin (standard classical anticancer drug) were tested for in vitro cytotoxicity against A549, MCF7 and HCT15 human cancer cell lines using MTT assay. The dose-dependent inhibition of cell proliferation was obtained by specific increase in concentration of tested compounds against fixed number of three human cancer cell lines. […] The highest activity of 4 might be attributed to the strong binding of dithiocarbamate sulfur to gold(I) that would prevent it to interact with plasma proteins in tissues, unlike cisplatin which was strongly bound to plasma proteins through sulfur atoms of thiols (S. Ahmad. Chem. Biodiv. 2010, 7, 543-566, incorporated herein by reference in its entirety).

[2] = system: MCF7 (human breast cancer) cell line; assay: MTT assay for in vitro cytotoxicity, MCF7; details: for antiproliferative potential for MCF7 cells, in words (relative to cisplatin / within the series): comparison of IC50 values; for IC50: 24 h incubation with compound, three independent experiments, read-out: IC50 values against MCF7 cancer cell line
Method: as §1, §2

[3] = system: A549 (human lung carcinoma) cell line; assay: MTT assay for in vitro cytotoxicity, A549; details: for IC50: 24 h incubation with compound, three independent experiments, read-out: IC50 values against A549 cancer cell line; for activity against A549 cells, in words (relative to cisplatin / within the series): comparison of IC50 values
Method: as §1, §2

Row | Molecule | antiproliferative potential for HCT15 cells, in words (relative to cisplatin / within the series) [1] | antiproliferative potential for MCF7 cells, in words (relative to cisplatin / within the series) [2] | IC50 [1] | IC50 [3] | IC50 [2] | activity against A549 cells, in words (relative to cisplatin / within the series) [3]
1 | NCC[P+]([Au-2][P+](CCN)(c1ccccc1)c1ccccc1)(c1ccccc1)c1ccccc1 [Complex 2, [Au(AEP)2]Cl] | comparable to cisplatin | about half with respect to cisplatin | – | – | – | –
2 | N.N.[Cl][Pt][Cl] [cisplatin, reference compound] | – | – | 32 ± 2.12 µM | 42.2 ± 2.01 µM | 23.2 ± 3.79 µM | –
3 | [Au2(S2CN(C2H5)2)2]n [Complex 4] | comparable to cisplatin; also recorded: most active among the series | about half with respect to cisplatin; also recorded: most active among the series | 38.9 ± 2.38 µM | 19.6 ± 0.85 µM | 48.8 ± 1.96 µM | most active among the series
4 | [Au2(S2CN(CH3)2)2]n [Complex 3] | least effective | least effective | 257 ± 3.39 µM | 304 ± 5.9 µM | 139 ± 4.51 µM | least effective
5 | [Au2(S2CN(CH7)2)2]n [Complex 5] | – | – | 69.1 ± 3.35 µM | 29.2 ± 1.81 µM | 76.3 ± 2.52 µM | –
